Measurements: patent US7410974B2, “Halogenated Quinazolinyl nitrofurans as antibacterial agents” (Ulysses Pharmaceutical Products, Inc., priority 2003, dated 2008)
≈ marks a conversion by molar mass, not a printed value. Read-outs that look alike come from different tables or passages of the source.

Assays:
[1] = system: Y. enterocolytica ATCC 23715; assay: MIC broth microdilution (NCCLS); type: cell-based, Yersinia enterocolytica; details: Yersinia, ATCC23715, read-out: MIC
Description: (§1) Minimal Inhibitory Concentration (MIC) Determination. Bacteria (primary strain panel, TABLE 1). Susceptibility tests were performed following the recommendations from the National Committee for Clinical Standards (NCCLS). The MICs were determined by a broth microdilution technique using a final volume of 100 μl of cation-adjusted Mueller Hinton Broth (MHBCA) and a bacterial inoculum of 10^5-10^6 Colony Forming Units (CFU)/ml. The inocula were verified and precisely determined by applying 10-μl drops of 10-fold dilutions onto Triptic Soy Agar plates. The CFU were counted after an incubation of 24 h at 35° C. Any experiment showing an inoculum that was more or less than 10^5-10^6 CFU/ml was rejected. Control antibiotics and test compounds were prepared at a concentration equivalent to 2-fold the highest desired final concentration. Compounds were then diluted directly in the 96-well microtiter plates by serial 2-fold dilutions using a multichannel pipette. Microtiter plates were incubated during 24 h at 35° C. and growth was recorded by using a microtiterplate reader at 650 nm as well as by visual observation. The MIC was defined as the lowest concentration of compound yielding no visible growth. […] Fastidious bacteria. The medium used for Listeria monocytogenes, Neisseria meningitidis, and Campylobacter jejuni was MHBCA containing 2% laked horse blood. The medium used for Haemophilus influenzae and Branhamella (Moraxella) catarrhalis was HTM as recommended by the NCCLS. Cultures of these fastidious bacteria were incubated at 35° C. in a 5% CO2 atmosphere. […] The medium used for Bacteroides fragilis was Wilkins Chalgren broth and growth was allowed under an anaerobic atmosphere at 35° C. for 48 hours.

E. coli ATCC 25922 = assay: MIC broth microdilution (NCCLS); type: cell-based, Escherichia coli; details: Escherichia coli, ATCC25922, E. coli ATCC 25922 (Reference); read-out: MIC
Description: as §1

S. typhimurium ATCC14028 = assay: MIC broth microdilution (NCCLS); type: cell-based, Salmonella typhimurium; details: Salmonella enterica; S. typhimurium ATCC14028; read-out: MIC
Description: as §1

[2] = system: S. epidermidis ATCC 12228; assay: MIC broth microdilution (NCCLS); type: cell-based, Staphylococcus epidermidis; details: Staphylococcus epidermidis, ATCC12228; S. epidermidis ATCC 12228; read-out: MIC
Description: as §1

E. faecium VanA = assay: MIC broth microdilution, antibiotic resistant strain panel; type: cell-based; details: Enterococcus faecium; multi-resistant E. faecium VanA; read-out: MIC
Description: as §1
(§2) Finally, compounds were also tested against populations of various clinical strains (antibiotic resistant strain panel, TABLE 1).

B. catarrhalis ATCC 8176 [3] = assay: Minimal Bactericidal Concentration (MBC); type: cell-based, Branhamella (Moraxella) catarrhalis; details: Moraxella catarrhalis, ATCC8176, 99.9% killing
Description: (§3) Minimal Bactericidal Concentration (MBC). After the microtiter plates were read for the determination of the MIC, a 10-μl sample of each clear well (at least 5 wells without visible growth) was applied onto TSA plates for viable counts determination.
(§4) Petri dishes were incubated at 35° C. for exactly 24 h and bacterial colonies were counted.

E. faecalis ATCC 29212 = assay: MIC broth microdilution (NCCLS); type: cell-based, Enterococcus faecalis; details: Enterococcus faecalis, ATCC29212; E. faecalis ATCC 29212; read-out: MIC
Description: as §1

H. influenzae ATCC 49247 [4] = assay: Minimal Bactericidal Concentration (MBC); type: cell-based; details: Haemophilus influenzae, ATCC49247, 99.9% killing
Description: as §3, §4

H. influenzae ATCC 49766 [5] = assay: Minimal Bactericidal Concentration (MBC); type: cell-based; details: Haemophilus influenzae, ATCC49766, 99.9% killing
Description: as §3, §4

[6] = system: S. saprophyticus ATCC 15305; assay: MIC broth microdilution (NCCLS); type: cell-based, Staphylococcus saprophyticus; details: Staphylococcus saprophyticus, ATCC15305; S. saprophyticus ATCC 15305; read-out: MIC
Description: as §1

S. aureus MRSA COL = assay: MIC broth microdilution (NCCLS); type: cell-based, Staphylococcus aureus; details: Staphylococcus aureus, MRSA
Description: as §1, with “hours. […]” for “hours.”

S. aureus ATCC 29213 = assay: MIC broth microdilution (NCCLS); type: cell-based, Staphylococcus aureus; details: Staphylococcus aureus, ATCC29213; S. aureus ATCC 29213; read-out: MIC
Description: as §1

A. baumannii ATCC 19606 = assay: MIC broth microdilution (NCCLS); type: cell-based, Acinetobacter baumannii; details: Acinetobacter baumannii, ATCC19606, read-out: MIC
Description: as §1

H. influenzae ATCC 49247 [7] = assay: MIC broth microdilution (NCCLS), fastidious bacteria; type: cell-based; details: Haemophilus influenzae, ATCC49247, HTM, 5% CO2
Description: as §1

H. influenzae ATCC 49766 [8] = assay: as above; type: cell-based; details: Haemophilus influenzae, ATCC49766, HTM, 5% CO2
Description: as §1

E. faecium ATCC 35667 = assay: MIC broth microdilution (NCCLS); type: cell-based, Enterococcus faecium; details: Enterococcus faecium, ATCC35667, E. faecium ATCC 35667; read-out: MIC
Description: as §1

B. catarrhalis ATCC 8176 [9] = assay: MIC broth microdilution (NCCLS), fastidious bacteria; type: cell-based, Branhamella (Moraxella) catarrhalis; details: Moraxella catarrhalis, ATCC8176, HTM, 5% CO2
Description: as §1

MRSA strain Sa220c = assay: MIC broth microdilution, antibiotic resistant strain panel; type: cell-based, Staphylococcus aureus; details: Staphylococcus aureus; multi-resistant MRSA strain Sa220c; read-out: MIC
Description: as §1, §2

MRSA strain Sa224c = assay: as above; type: cell-based, Staphylococcus aureus; details: Staphylococcus aureus; multi-resistant MRSA strain Sa224c; read-out: MIC
Description: as §1, §2

MRSA strain Sa248c = assay: as above; type: cell-based, Staphylococcus aureus; details: Staphylococcus aureus; multi-resistant MRSA strain Sa248c; read-out: MIC
Description: as §1, §2

MRSA strain Sa211c = assay: as above; type: cell-based, Staphylococcus aureus; details: Staphylococcus aureus; multi-resistant MRSA strain Sa211c; read-out: MIC
Description: as §1, §2

MRSA strain Sa234c = assay: as above; type: cell-based, Staphylococcus aureus; details: Staphylococcus aureus; multi-resistant MRSA strain Sa234c; read-out: MIC
Description: as §1, §2

MRSA strain Sa253c = assay: as above; type: cell-based, Staphylococcus aureus; details: Staphylococcus aureus; multi-resistant MRSA strain Sa253c; read-out: MIC
Description: as §1, §2

MRSA strain Sa249c = assay: as above; type: cell-based, Staphylococcus aureus; details: Staphylococcus aureus; multi-resistant MRSA strain Sa249c; read-out: MIC
Description: as §1, §2

MRSA strain Sa228c = assay: as above; type: cell-based, Staphylococcus aureus; details: Staphylococcus aureus; multi-resistant MRSA strain Sa228c; read-out: MIC
Description: as §1, §2

MRSA strain Sa212c = assay: as above; type: cell-based, Staphylococcus aureus; details: Staphylococcus aureus; multi-resistant MRSA strain Sa212c; read-out: MIC
Description: as §1, §2

How did the MIC [1] turn out when `CO/N=C(\C(=O)N[C@@H]1C(=O)N2C(C(=O)O)=C(COC(C)=O)CS[C@H]12)c1csc(N)n1` [Cefotaxime] was run?
The MIC was greater than 2 µg/mL.

And the MIC (E. coli ATCC 25922)?
The MIC was 0.06 to 0.12 µg/mL (≈ 0.132 to 0.263 µM).

And the MIC (S. typhimurium ATCC14028)?
The MIC was greater than 2 µg/mL.

What about the MIC [2] of the same compound?
The MIC was 0.5 to 1 µg/mL (≈ 1.1 to 2.2 µM).

And the MIC (E. faecium VanA)?
Its MIC is greater than 128 µg/mL.

What about the MBC (B. catarrhalis ATCC 8176 [3]) of the same compound?
The MBC was 0.06 µg/mL (≈ 0.132 µM).

And the MIC (E. faecalis ATCC 29212)?
The MIC was 2 to 8 µg/mL (≈ 4.39 to 17.6 µM).

And the MBC (H. influenzae ATCC 49247 [4])?
The MBC was 0.12 µg/mL (≈ 0.263 µM).

And the MBC (H. influenzae ATCC 49766 [5])?
The MBC was 0.008 µg/mL (≈ 0.0176 µM).

What about the MIC [6] of the same compound?
Its MIC is 8 µg/mL (≈ 17.6 µM).

What about the MIC (S. aureus MRSA COL) of the same compound?
Its MIC is 512 µg/mL (≈ 1120 µM).

And the MIC (S. aureus ATCC 29213)?
The MIC was 1 to 2 µg/mL (≈ 2.2 to 4.39 µM).

And the MIC (A. baumannii ATCC 19606)?
The MIC was 16 µg/mL (≈ 35.1 µM).

What about the MIC (H. influenzae ATCC 49247 [7]) of the same compound?
The MIC was 0.12 µg/mL (≈ 0.263 µM).

And the MIC (H. influenzae ATCC 49766 [8])?
Its MIC is 0.008 µg/mL (≈ 0.0176 µM).

And the MIC (E. faecium ATCC 35667)?
The MIC was 16 µg/mL (≈ 35.1 µM).

What about the MIC (B. catarrhalis ATCC 8176 [9]) of the same compound?
Its MIC is 0.03 µg/mL (≈ 0.0659 µM).

For `CC[C@H]1OC(=O)[C@H](C)[C@@H](O[C@H]2C[C@@](C)(OC)[C@@H](O)[C@H](C)O2)[C@H](C)[C@@H](O[C@@H]2O[C@H](C)C[C@H](N(C)C)[C@H]2O)[C@](C)(O)C[C@@H](C)C(=O)[C@H](C)[C@@H](O)[C@]1(C)O` [Erythromycin], which MIC (E. coli ATCC 25922) is on record?
Its MIC is 64 µg/mL (≈ 87.2 µM).

And the MIC [2]?
Its MIC is 0.5 µg/mL (≈ 0.681 µM).

What about the MBC (B. catarrhalis ATCC 8176 [3]) of the same compound?
The MBC was 0.12 µg/mL (≈ 0.164 µM).

What about the MIC (E. faecalis ATCC 29212) of the same compound?
Its MIC is 2 to 4 µg/mL (≈ 2.73 to 5.45 µM).

What about the MBC (H. influenzae ATCC 49247 [4]) of the same compound?
Its MBC is 2 µg/mL (≈ 2.73 µM).

And the MBC (H. influenzae ATCC 49766 [5])?
The MBC was 16 µg/mL (≈ 21.8 µM).

And the MIC [6]?
The MIC was 0.25 µg/mL (≈ 0.341 µM).

And the MIC (S. aureus MRSA COL; S. aureus MRSA COL, read-out: MIC)?
The MIC was 0.25 µg/mL (≈ 0.341 µM).

What about the MIC (S. aureus ATCC 29213) of the same compound?
Its MIC is 0.5 µg/mL (≈ 0.681 µM).

And the MIC (MRSA strain Sa220c)?
Its MIC is 0.5 µg/mL (≈ 0.681 µM).

What about the MIC (MRSA strain Sa224c) of the same compound?
The MIC was greater than 32 µg/mL.

What about the MIC (MRSA strain Sa248c) of the same compound?
The MIC was greater than 128 µg/mL.

What about the MIC (MRSA strain Sa211c) of the same compound?
The MIC was greater than 32 µg/mL.

What about the MIC (MRSA strain Sa234c) of the same compound?
The MIC was greater than 32 µg/mL.

And the MIC (MRSA strain Sa253c)?
Its MIC is greater than 128 µg/mL.

And the MIC (MRSA strain Sa249c)?
Its MIC is greater than 128 µg/mL.

And the MIC (MRSA strain Sa228c)?
Its MIC is greater than 32 µg/mL.

And the MIC (MRSA strain Sa212c)?
Its MIC is greater than 32 µg/mL.

What about the MIC (H. influenzae ATCC 49247 [7]) of the same compound?
Its MIC is 2 µg/mL (≈ 2.73 µM).

And the MIC (H. influenzae ATCC 49766 [8])?
Its MIC is 8 µg/mL (≈ 10.9 µM).

What about the MIC (E. faecium ATCC 35667) of the same compound?
Its MIC is 2 µg/mL (≈ 2.73 µM).

And the MIC (B. catarrhalis ATCC 8176 [9])?
The MIC was 0.06 µg/mL (≈ 0.0818 µM).
